Experimental data published in patent US9469631B2 (Boehringer Ingelheim International GmbH, priority 2012, dated 2016).

These molecules were tested against human GPR119 (Homo sapiens (Human), UniProt Q8TDV5) (assay: AlphaScreen cAMP assay in MIN6 cells stably transfected with human GPR119). Conditions: Min-6/hGPR119 cells, 45 min incubation at room temperature.
Chain of human GPR119 (Q8TDV5 whole entry): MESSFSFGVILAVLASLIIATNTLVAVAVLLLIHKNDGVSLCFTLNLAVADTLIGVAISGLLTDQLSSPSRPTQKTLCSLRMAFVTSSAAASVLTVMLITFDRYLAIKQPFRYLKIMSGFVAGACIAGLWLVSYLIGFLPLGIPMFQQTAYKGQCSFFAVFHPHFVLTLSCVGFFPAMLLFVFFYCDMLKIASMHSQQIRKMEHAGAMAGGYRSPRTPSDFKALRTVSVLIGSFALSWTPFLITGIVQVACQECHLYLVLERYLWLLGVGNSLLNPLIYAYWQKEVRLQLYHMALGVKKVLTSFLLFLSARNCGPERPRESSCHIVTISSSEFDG
Assay type: cell-based
Experimental: The compounds of formula I according to the invention modulate the activity of the G-protein-coupled receptor GPR119. The effect of the compounds on the activation of GPR119 and on the stimulation of intracellular cAMP concentration is determined using the AlphaScreen cAMP Assay Kit (Cat. No. #6760625R) made by PerkinElmer.
MIN6 cells [Miyazaki J et al. Endocrinology. 1990 July; 127(1):126-32] are stably transfected with an expression vector for human GPR119 cDNA (Acc. No. NP_848566). Min-6/hGPR119 cells are cultured in DMEM, 10% FBS, 50 μM β-mercaptoethanol, 0.3 mg/mL Geniticin, 2 mM GlutaMAX at 37° C. 5% CO2. For the assay, the cells are seeded in Optiplates (white, 384-well, 160W-barcoded, TC, sterile with lid, Cat. No. #6007688 (Perkin Elmer); 10000 cells/well; 50 μl). The plates covered with lids are then incubated for 24 hours at 37° C./5% CO2. After the medium is aspirated from the wells completely, 10 μl of the test compound are added, the compounds are diluted using stimulating buffer (140 mM NaCl, 3.6 mM KCl, 0.5 mM NaH2PO4, 0.5 mM MgSO4, 1.5 mM CaCl2, 10 mM Hepes, 5 mM NaHCO3; pH 7.4. 0.5 mM IBMX and 0.1% BSA, the final DMSO concentration is 1%). After 45 minutes incubation at room temperature (approx. 20° C.), the cAMP concentrations are determined using the AlphaScreen cAMP Assay Kit (Cat. No. #6760625R from PerkinElmer).
`CC(C)(C)OC(=O)N1CCC(N(C(=O)c2ccc(-n3cccn3)cc2)C2CC2)CC1` [Example 71, 4-[Cyclopropyl-(4-pyrazol-1-yl-benzoyl)-amino]-piperidine-1-carboxylic acid tert-butyl ester] showed an EC50 of 637 nM. Molecule `CN(C)C(=O)Nc1nc(-c2ccc(C(=O)N(C3CC3)C3CCN(C(=O)OC(C)(C)C)CC3)cc2)ns1` [Example 72, 4-(Cyclopropyl-{4-[5-(3,3-dimethyl-ureido)-[1,2,4]thiadiazol-3-yl]-benzoyl}-amino)-piperidine-1-carboxylic acid tert-butyl ester] has an EC50 of 1170 nM. `CNC(=O)Nc1nc(-c2ccc(C(=O)N(C3CC3)C3CCN(C(=O)OC(C)(C)C)CC3)cc2)ns1` [Example 73, 4-(Cyclopropyl-{4-[5-(3-methyl-ureido)-[1,2,4]thiadiazol-3-yl]-benzoyl}-amino)-piperidine-1-carboxylic acid tert-butyl ester] gave an EC50 of 500 nM. In the case of `CC(=O)Nc1nc(-c2ccc(C(=O)N(C3CC3)C3CCN(C(=O)OC(C)(C)C)CC3)cc2)ns1` [Example 74, 4-{[4-(5-Acetylamino-[1,2,4]thiadiazol-3-yl)-benzoyl]-cyclopropyl-amino}-piperidine-1-carboxylic acid tert-butyl ester], the EC50 is reported as 886 nM. With `CC(C)(C)OC(=O)N1CCC(N(C(=O)c2ccc(-c3cccnc3)cc2)C2CC2)CC1` [Example 75, 4-[Cyclopropyl-(4-pyridin-3-yl-benzoyl)-amino]-piperidine-1-carboxylic acid tert-butyl ester] the EC50 was 651 nM. In the case of `CN(C)C(=O)Nc1nnc(-c2ccc(C(=O)N(C3CC3)C3CCN(C(=O)OC(C)(C)C)CC3)cc2)s1` [Example 76, 4-(Cyclopropyl-{4-[5-(3,3-dimethyl-ureido)-[1,3,4]thiadiazol-2-yl]-benzoyl}-amino)-piperidine-1-carboxylic acid tert-butyl ester], the EC50 is reported as 233 nM. In the case of `CC(=O)Nc1nnc(-c2ccc(C(=O)N(C3CC3)C3CCN(C(=O)OC(C)(C)C)CC3)cc2)s1` [Example 77, 4-{[4-(5-Acetylamino-[1,3,4]thiadiazol-2-yl)-benzoyl]-cyclopropyl-amino}-piperidine-1-carboxylic acid tert-butyl ester], the EC50 is reported as 394 nM. `CCOC(=O)c1cnn(-c2ccc(C(=O)N(C3CC3)C3CCN(C(=O)OC(C)(C)C)CC3)cc2)c1C` [Example 78, 4-{Cyclopropyl-[4-(4-ethoxycarbonyl-5-methyl-pyrazol-1-yl)-benzoyl]-amino}-piperidine-1-carboxylic acid tert-butyl ester] showed an EC50 of 75 nM. Work on `CCOC(=O)c1c(C)nn(-c2ccc(C(=O)N(C3CC3)C3CCN(C(=O)OC(C)(C)C)CC3)cc2)c1C` [Example 79, 4-{Cyclopropyl-[4-(4-ethoxycarbonyl-3,5-dimethyl-pyrazol-1-yl)-benzoyl]-amino}-piperidine-1-carboxylic acid tert-butyl ester] yielded an EC50 of 1010 nM. `CC(C)(C)OC(=O)N1CCC(N(C(=O)c2ccc(-c3ccsc3)cc2)C2CC2)CC1` [Example 80, 4-[Cyclopropyl-(4-thiophen-3-yl-benzoyl)-amino]-piperidine-1-carboxylic acid tert-butyl ester] gave an EC50 of 345 nM. `CC(C)(C)OC(=O)N1CCC(N(C(=O)c2ccc(-n3cnc(-c4ccccc4)c3)c(Cl)c2)C2CC2)CC1` [Example 81, 4-{[3-Chloro-4-(4-phenyl-imidazol-1-yl)-benzoyl]-cyclopropyl-amino}-piperidine-1-carboxylic acid tert-butyl ester] showed an EC50 of 148 nM. Work on `CNC(=O)Nc1nnc(-c2ccc(C(=O)N(C3CC3)C3CCN(C(=O)OC(C)(C)C)CC3)cc2)s1` [Example 82, 4-(Cyclopropyl-{4-[5-(3-methyl-ureido)-[1,3,4]thiadiazol-2-yl]-benzoyl}-amino)-piperidine-1-carboxylic acid tert-butyl ester] yielded an EC50 of 402 nM. For `Cc1c(-c2ccccc2)ncn1-c1ccc(C(=O)N(C2CC2)C2CCN(C(=O)OC(C)(C)C)CC2)cc1` [Example 83, 4-{Cyclopropyl-[4-(5-methyl-4-phenyl-imidazol-1-yl)-benzoyl]-amino}-piperidine-1-carboxylic acid tert-butyl ester], the EC50 was 291 nM. `Cc1nc(-c2ccccc2)cn1-c1ccc(C(=O)N(C2CC2)C2CCN(C(=O)OC(C)(C)C)CC2)cc1` [Example 84, 4-{Cyclopropyl-[4-(2-methyl-4-phenyl-imidazol-1-yl)-benzoyl]-amino}-piperidine-1-carboxylic acid tert-butyl ester] gave an EC50 of 96 nM. For `COc1ccc(-c2ccc(C(=O)N(C3CC3)C3CCN(C(=O)OC(C)(C)C)CC3)cc2)cc1` [Example 86, 4-[Cyclopropyl-(4′-methoxy-biphenyl-4-carbonyl)-amino]-piperidine-1-carboxylic acid tert-butyl ester], the EC50 was 401 nM. In the case of `CCOc1ccc(-c2ccc(C(=O)N(C3CC3)C3CCN(C(=O)OC(C)(C)C)CC3)cc2)cc1` [Example 87, 4-[Cyclopropyl-(4′-ethoxy-biphenyl-4-carbonyl)-amino]-piperidine-1-carboxylic acid tert-butyl ester], the EC50 is reported as 256 nM. `CC(C)(C)OC(=O)N1CCC(N(C(=O)c2ccc(-c3ccc(OC(F)(F)F)cc3)cc2)C2CC2)CC1` [Example 88, 4-[Cyclopropyl-(4′-trifluoromethoxy-biphenyl-4-carbonyl)-amino]-piperidine-1-carboxylic acid tert-butyl ester] gave an EC50 of 203 nM. `CC(C)(C)OC(=O)N1CCC(N(C(=O)c2ccc(-c3ccc(C#N)s3)cc2)C2CC2)CC1` [Example 89, 4-{[4-(5-Cyano-thiophen-2-yl)-benzoyl]-cyclopropyl-amino}-piperidine-1-carboxylic acid tert-butyl ester] showed an EC50 of 24 nM. Molecule `CC(C)(C)OC(=O)N1CCC(N(C(=O)c2ccc(-c3ccoc3)cc2)C2CC2)CC1` [Example 90, 4-[Cyclopropyl-(4-furan-3-yl-benzoyl)-amino]-piperidine-1-carboxylic acid tert-butyl ester] has an EC50 of 228 nM. In the case of `CC(C)(C)OC(=O)N1CCC(N(C(=O)c2ccc(-c3ccc(CC#N)cc3)cc2)C2CC2)CC1` [Example 91, 4-[(4′-Cyanomethyl-biphenyl-4-carbonyl)-cyclopropyl-amino]-piperidine-1-carboxylic acid tert-butyl ester], the EC50 is reported as 86 nM. For `CC(C)(C)OC(=O)N1CCC(N(C(=O)c2ccc(-c3ccc(NS(C)(=O)=O)cc3)cc2)C2CC2)CC1` [Example 92, 4-[Cyclopropyl-(4′-methanesulfonylamino-biphenyl-4-carbonyl)-amino]-piperidine-1-carboxylic acid tert-butyl ester], the EC50 was 79 nM. With `CC(C)(C)OC(=O)N1CCC(N(C(=O)c2ccc(-c3ccc(S(C)(=O)=O)cc3)cc2)C2CC2)CC1` [Example 93, 4-[Cyclopropyl-(4′-methanesulfonyl-biphenyl-4-carbonyl)-amino]-piperidine-1-carboxylic acid tert-butyl ester] the EC50 was 177 nM. Work on `CC(C)(C)OC(=O)N1CCC(N(C(=O)c2ccc(-c3ccccc3C#N)cc2)C2CC2)CC1` [Example 94, 4-[(2′-Cyano-biphenyl-4-carbonyl)-cyclopropyl-amino]-piperidine-1-carboxylic acid tert-butyl ester] yielded an EC50 of 317 nM. `Cc1noc(C)c1-c1ccc(C(=O)N(C2CC2)C2CCN(C(=O)OC(C)(C)C)CC2)cc1` [Example 95, 4-{Cyclopropyl-[4-(3,5-dimethyl-isoxazol-4-yl)-benzoyl]-amino}-piperidine-1-carboxylic acid tert-butyl ester] gave an EC50 of 85 nM. In the case of `COc1ccc(-c2ccc(C(=O)N(C3CC3)C3CCN(C(=O)OC(C)(C)C)CC3)cc2)cn1` [Example 96, 4-{Cyclopropyl-[4-(6-methoxy-pyridin-3-yl)-benzoyl]-amino}-piperidine-1-carboxylic acid tert-butyl ester], the EC50 is reported as 131 nM. `CC(C)(C)NS(=O)(=O)c1ccccc1-c1ccc(C(=O)N(C2CC2)C2CCN(C(=O)OC(C)(C)C)CC2)cc1` [Example 97, 4-[(2′-tert-Butylsulfamoyl-biphenyl-4-carbonyl)-cyclopropyl-amino]-piperidine-1-carboxylic acid tert-butyl ester] was tested, and the EC50 was 161 nM. In the case of `CC(C)(C)OC(=O)N1CCC(N(C(=O)c2ccc(-c3ccc(CO)cc3)cc2)C2CC2)CC1` [Example 98, 4-[Cyclopropyl-(4′-hydroxymethyl-biphenyl-4-carbonyl)-amino]-piperidine-1-carboxylic acid tert-butyl ester], the EC50 is reported as 68 nM. In the case of `COc1ncc(-c2ccc(C(=O)N(C3CC3)C3CCN(C(=O)OC(C)(C)C)CC3)cc2)cn1` [Example 99, 4-{Cyclopropyl-[4-(2-methoxy-pyrimidin-5-yl)-benzoyl]-amino}-piperidine-1-carboxylic acid tert-butyl ester], the EC50 is reported as 55 nM. Molecule `CC(C)(C)OC(=O)N1CCC(N(C(=O)c2ccc(-c3ccc(C#N)nc3)cc2)C2CC2)CC1` [Example 100, 4-{[4-(6-Cyano-pyridin-3-yl)-benzoyl]-cyclopropyl-amino}-piperidine-1-carboxylic acid tert-butyl ester] has an EC50 of 34 nM.
